The source of these data is US20210253562A1, “ACYLSUFONAMIDE COMPOUNDS USEFUL AS EP3 RECEPTOR ANTAGONISTS” (Janssen Pharmaceutica NV, priority 2018, published 2021).

For one test, the target named is T1, EP3 membrane (EP3 receptor) (Homo sapiens, UniProt P43115).
T1 construct: purchased Millipore HTS092M
T1 sequence (P43115 1-390): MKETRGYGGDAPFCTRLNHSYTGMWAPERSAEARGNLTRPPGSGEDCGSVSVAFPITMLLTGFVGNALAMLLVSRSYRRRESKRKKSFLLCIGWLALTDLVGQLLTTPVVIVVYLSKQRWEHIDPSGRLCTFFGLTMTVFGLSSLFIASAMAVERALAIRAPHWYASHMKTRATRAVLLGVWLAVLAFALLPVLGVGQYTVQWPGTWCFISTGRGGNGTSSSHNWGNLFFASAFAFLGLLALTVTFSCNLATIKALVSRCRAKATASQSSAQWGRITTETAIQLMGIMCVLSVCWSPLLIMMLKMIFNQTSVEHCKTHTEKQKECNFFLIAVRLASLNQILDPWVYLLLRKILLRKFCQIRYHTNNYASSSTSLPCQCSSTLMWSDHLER
As to the kind of experiment: [3H]-PGE2 binding; EP3 competition binding (SPA).
Details: not given
On the procedure: Biological Example 1: [3H]-PGE2 Binding
EP3 competition binding was determined using the following materials and experimental conditions: • Beads=Perkin Elmer RPNQ0001 • [3H]PGE2=Perkin Elmer NET428025UC • 384-well plate=Perkin Elmer 6007290 • EP3 membrane=Millipore HTS092M • Membrane concentration=2 μg/well • Beads concentration=0.25 mg/well • [3H]-PGE2=2 nM; DMSO—0.1% • Binding buffer=50 mM Tris, 10 mM MgCl2, 1 mM EDTA, PH 7.4.
The reaction system was prepared by mixing 5 μl of unlabeled compound; 5 μl of diluted [3H]-PGE2; 5 μl of diluted membrane; and 15 μl of SPA beads dissolved in binding buffer (adding in the following sequence: Unlabeled compound, [3H]-PGE2, Membrane and Beads).
The binding buffer was removed from refrigeration (@ 4° C.) and allowed to warm to room temperature. Test compound (@ stock concentration of […] in DMSO) was serial dilutes (1:3) with 100% DMSO using Echo plate. Diluted test compound (30 nL) was dispensed to the 384-well assay plate (using Echo 550 Labcyte System). To each well was then added assay buffer (5 μl) and each well was spun. Beads were weighed out, dissolved in assay buffer to a concentration of 0.25 mg/15 μl. Original membrane was diluted with assay buffer to a concentration of 2 μg/5 μl. Original [3H]-PGE2 with diluted with assay buffer to a concentration of 12 nM. To each test well were then added diluted [3H]-PGE2 (5 μl), diluted membrane (5 μl), and dissolved beads (15 μl). The plate was equilibrated at room temperature on a plate shaker for 2 hours and then read with a TOPCOUNT scintillation plate reader. Results were analyzed using a Prism program with non-linear regression, one-site fit for Ki.
The molecule `Cc1cc(S(=O)(=O)NC(=O)NC/C=C2\CCCc3cnn(Cc4ccc(Cl)cc4Cl)c32)sc1Cl` [Compound #185, (E)-5-chloro-N-((2-(1-(2,4-dichlorobenzyl)-1,4,5,6-tetrahydro-7H-indazol-7-ylidene)ethyl)carbamoyl)-4-methylthiophene-2-sulfonamide] had a Ki of 1 nM.
Still for that read-out and setting: in the case of `Cc1nc(C)c(S(=O)(=O)NC(=O)NC/C(F)=C2\CCCc3cnn(Cc4ccc(Cl)cc4Cl)c32)s1` [Compound #158, (Z)—N-((2-(1-(2,4-Dichlorobenzyl)-1,4,5,6-tetrahydro-7H-indazol-7-ylidene)-2-fluoroethyl)carbamoyl)-2,4-dimethylthiazole-5-sulfonamide] it was 32 nM.
The same measure, in the same setting: in the case of `O=C(NC/C(F)=C1\CCCc2cnn(CCc3ccc(C(F)(F)F)cc3)c21)NS(=O)(=O)c1cc(Cl)c(Cl)s1` [Compound #157, (Z)-4,5-dichloro-N-((2-fluoro-2-(1-(4-(trifluoromethyl)phenethyl)-1,4,5,6-tetrahydro-7H-indazol-7-ylidene)ethyl)carbamoyl)thiophene-2-sulfonamide] it was 467 nM.
For `O=C(NC/C(F)=C1\CCCc2cnn(C3CCN(c4ccc(F)cc4)CC3)c21)NS(=O)(=O)c1cc(Cl)c(Cl)s1` [Compound #154, (Z)-4,5-dichloro-N-((2-fluoro-2-(1-(1-(4-fluorophenyl)piperidin-4-yl)-1,4,5,6-tetrahydro-7H-indazol-7-ylidene)ethyl)carbamoyl)thiophene-2-sulfonamide], the Ki amounted to 13 nM.
Consider `O=C(NC/C=C1\CCCc2cnn(C3CCN(Cc4ccccc4)CC3)c21)NS(=O)(=O)c1cc(Cl)c(Cl)s1` [Compound #148, (E)-N-((2-(1-(1-benzylpiperidin-4-yl)-1,4,5,6-tetrahydro-7H-indazol-7-ylidene)ethyl)carbamoyl)-4,5-dichlorothiophene-2-sulfonamide], for which the affinity, expressed as Ki, was 6 nM.
On the same count and under the same terms, the value for `Cc1cc(S(=O)(=O)NC(=O)NC/C=C2\CCCc3cnn(Cc4ccc(Cl)cc4Cl)c32)n(C)n1` [Compound #192, (E)-N-((2-(1-(2,4-dichlorobenzyl)-1,4,5,6-tetrahydro-7H-indazol-7-ylidene)ethyl)carbamoyl)-1,3-dimethyl-1H-pyrazole-5-sulfonamide] was 6 nM; that for `CC(=O)Nc1nc(C)c(S(=O)(=O)NC(=O)NC/C(F)=C2\CCCc3cnn(Cc4ccc(Cl)cc4Cl)c32)s1` [Compound #182, (Z)—N-(5-(N-((2-(1-(2,4-dichlorobenzyl)-1,4,5,6-tetrahydro-7H-indazol-7-ylidene)-2-fluoroethyl)carbamoyl)sulfamoyl)-4-methylthiazol-2-yl)acetamide] was 153 nM; that for `COc1ccc(S(=O)(=O)NC(=O)NC/C(F)=C2\CCCc3cnn(Cc4ccc(Cl)cc4Cl)c32)cc1OC` [Compound #174, (Z)—N-((2-(1-(2,4-dichlorobenzyl)-1,4,5,6-tetrahydro-7H-indazol-7-ylidene)-2-fluoroethyl)carbamoyl)-3,4-dimethoxybenzenesulfonamide] was 149 nM.
The same measure, in the same setting: in the case of `Cc1cc(S(=O)(=O)NC(=O)NC/C(F)=C2\COCc3[nH]nc(Cc4ccc(Cl)cc4Cl)c32)sc1Cl` [Compound #190, (E)-5-chloro-N-((2-(3-(2,4-dichlorobenzyl)-1,7-dihydropyrano[3,4-c]pyrazol-4(5H)-ylidene)-2-fluoroethyl)carbamoyl)-4-methylthiophene-2-sulfonamide] it was 1 nM; in that of `Cc1c(S(=O)(=O)NC(=O)NC/C=C2\CCCc3cnn(Cc4ccc(Cl)cc4Cl)c32)cnn1C` [Compound #172, (E)-N-((2-(1-(2,4-dichlorobenzyl)-1,4,5,6-tetrahydro-7H-indazol-7-ylidene)ethyl)carbamoyl)-1,5-dimethyl-1H-pyrazole-4-sulfonamide], 4 nM.
The same measure, in the same setting: the value for `Cc1cc(S(=O)(=O)NC(=O)NC/C(F)=C2\CCCc3cnn(Cc4ccc(Cl)cc4Cl)c32)n(C)n1` [Compound #193, (Z)—N-((2-(1-(2,4-dichlorobenzyl)-1,4,5,6-tetrahydro-7H-indazol-7-ylidene)-2-fluoroethyl)carbamoyl)-1,3-dimethyl-1H-pyrazole-5-sulfonamide] was 75 nM; that for `Cn1ccc(S(=O)(=O)NC(=O)NC/C=C2\CCCc3cnn(Cc4ccc(Cl)cc4Cl)c32)n1` [Compound #153, (E)-N-((2-(1-(2,4-dichlorobenzyl)-1,4,5,6-tetrahydro-7H-indazol-7-ylidene)ethyl)carbamoyl)-1-methyl-1H-pyrazole-3-sulfonamide] was 22 nM; that for `Cc1nc2cc(S(=O)(=O)NC(=O)NC/C(F)=C3\CCCc4cnn(Cc5ccc(Cl)cc5Cl)c43)ccc2o1` [Compound #183, (Z)—N-((2-(1-(2,4-dichlorobenzyl)-1,4,5,6-tetrahydro-7H-indazol-7-ylidene)-2-fluoroethyl)carbamoyl)-2-methylbenzo[d]oxazole-5-sulfonamide] was 218 nM.
As for `Cc1cc(S(=O)(=O)NC(=O)NC/C(F)=C2\CCCc3onc(Cc4ccc(Cl)cc4Cl)c32)sc1Cl` [Compound #181, (Z)-5-chloro-N-((2-(3-(2,4-dichlorobenzyl)-6,7-dihydrobenzo[d]isoxazol-4(5H)-ylidene)-2-fluoroethyl)carbamoyl)-4-methylthiophene-2-sulfonamide], the affinity, expressed as Ki, was 6 nM.
As for `COCn1nc(Cc2ccc(Cl)cc2Cl)c2c1COC/C2=C(/F)CNC(=O)NS(=O)(=O)c1cc(Cl)c(Cl)s1` [Compound #146, (E)-4,5-dichloro-N-((2-(3-(2,4-dichlorobenzyl)-1-(methoxymethyl)-1,7-dihydropyrano[3,4-c]pyrazol-4(5H)-ylidene)-2-fluoroethyl)carbamoyl)thiophene-2-sulfonamide], affinity was put at a Ki of 22 nM.
The same measure, in the same setting: the value for `O=C(NC/C(F)=C1\COCc2onc(Cc3ccc(Cl)cc3Cl)c21)NS(=O)(=O)c1cc(Cl)c(Cl)s1` [Compound #145, (E)-4,5-dichloro-N-((2-(3-(2,4-dichlorobenzyl)-5H-pyrano[4,3-d]isoxazol-4(7H)-ylidene)-2-fluoroethyl)carbamoyl)thiophene-2-sulfonamide] was 6 nM; that for `Cc1c(S(=O)(=O)NC(=O)NC/C(F)=C2\CCCc3cnn(Cc4ccc(Cl)cc4Cl)c32)cnn1C` [Compound #169, (Z)—N-((2-(1-(2,4-dichlorobenzyl)-1,4,5,6-tetrahydro-7H-indazol-7-ylidene)-2-fluoroethyl)carbamoyl)-1,5-dimethyl-1H-pyrazole-4-sulfonamide] was 83 nM; that for `CC(C)n1cc(S(=O)(=O)NC(=O)NC/C=C2\CCCc3cnn(Cc4ccc(Cl)cc4Cl)c32)cn1` [Compound #173, (E)-N-((2-(1-(2,4-dichlorobenzyl)-1,4,5,6-tetrahydro-7H-indazol-7-ylidene)ethyl)carbamoyl)-1-isopropyl-1H-pyrazole-4-sulfonamide] was 59 nM.
The same measure, in the same setting: the value for `COc1ccc(S(=O)(=O)NC(=O)NC/C(F)=C2\COCc3cnn(Cc4ccc(Cl)cc4Cl)c32)cc1Cl` [Compound #165, (E)-3-chloro-N-((2-(1-(2,4-dichlorobenzyl)-1,4-dihydropyrano[4,3-c]pyrazol-7(6H)-ylidene)-2-fluoroethyl)carbamoyl)-4-methoxybenzenesulfonamide] was 10 nM; that for `Cn1ncc2ccc(S(=O)(=O)NC(=O)NC/C(F)=C3\CCCc4cnn(Cc5ccc(Cl)cc5Cl)c43)cc21` [Compound #194, (Z)—N-((2-(1-(2,4-dichlorobenzyl)-1,4,5,6-tetrahydro-7H-indazol-7-ylidene)-2-fluoroethyl)carbamoyl)-1-methyl-1H-indazole-6-sulfonamide] was 25 nM.
The same measure, in the same setting: the value for `O=C(NC/C=C1\CCCc2cnn(Cc3ccc(Cl)cc3Cl)c21)NS(=O)(=O)c1ccc2[nH]c(=O)oc2c1` [Compound #176, (E)-N-((2-(1-(2,4-dichlorobenzyl)-1,4,5,6-tetrahydro-7H-indazol-7-ylidene)ethyl)carbamoyl)-2-oxo-2,3-dihydrobenzo[d]oxazole-6-sulfonamide] was 1 nM.

The same test, now with this note: unit nM.
`COc1ccc(S(=O)(=O)NC(=O)NC/C(F)=C2\CCCc3[nH]nc(Cc4ccc(Cl)cc4Cl)c32)cc1Cl` [Compound #179, (Z)-3-chloro-N-((2-(3-(2,4-dichlorobenzyl)-1,5,6,7-tetrahydro-4H-indazol-4-ylidene)-2-fluoroethyl)carbamoyl)-4-methoxybenzenesulfonamide] yielded a Ki of 0.4 nM.
